Assays:
[1] = Lipophilicity, logP of the compound; type: physicochemical; conditions: octanol/water
Mus musculus [2] = test: Anesthetic activity in mouse assessed as concentration required to induce hypnotic effect; type: functional, organism-based
[3] = Toxicity in mouse assessed as lethal dose; conditions: in vivo
[4] = Therapeutic index, ratio of LD50 for toxicity in mouse to HD50 for anesthetic activity in mouse; type: organism-based; conditions: in vivo, read-out: TI
[5] = target: GABA-A receptor; anion channel (Homo sapiens) (UniProt P14867+P47870+P18507+P28472+P48169+Q99928+Q9UN88+P34903+O00591+O14764+Q8N1C3+P18505+P78334+P47869+P31644+Q16445); test: Inhibition of GABAA receptor (unknown origin) at 50 uM by radioligand receptor binding assay relative to control; type: protein-complex assay
Mus musculus [6] = test: Anesthetic activity in mouse assessed as onset time; type: functional
Mus musculus [7] = test: Anesthetic activity in mouse assessed as time duration of loss of righting reflex; type: functional
Mus musculus [8] = test: Anesthetic activity in mouse assessed as time to walk at 2 times of HD50 concentration; type: functional
Rattus norvegicus [9] = test: Anesthetic activity in rat assessed as concentration required to induce hypnotic effect; type: functional, organism-based
[10] = Toxicity in rat assessed as lethal dose; conditions: in vivo
[11] = Therapeutic index, ratio of LD50 for toxicity in rat to HD50 for anesthetic activity in rat; conditions: read-out: TI
Oryctolagus cuniculus [12] = test: Anesthetic activity in rabbit assessed as concentration required to induce hypnotic effect; type: functional, organism-based
[13] = Toxicity in rabbit assessed as lethal dose; parameters: species or system Oryctolagus cuniculus; conditions: in vivo
[14] = Therapeutic index, ratio of LD50 for toxicity in rabbit to HD50 for anesthetic activity in rabbit; conditions: read-out: TI
Rattus norvegicus [15] = test: Anesthetic activity in rat assessed as onset time; type: functional
Rattus norvegicus [16] = test: Anesthetic activity in rat assessed as time duration of loss of righting reflex; type: functional
Rattus norvegicus [17] = test: Anesthetic activity in rat assessed as time to walk at 2 times of HD50 concentration; type: functional
Oryctolagus cuniculus [18] = test: Anesthetic activity in rabbit assessed as onset time; type: functional
Oryctolagus cuniculus [19] = test: Anesthetic activity in rabbit assessed as time duration of loss of righting reflex; type: functional
Oryctolagus cuniculus [20] = test: Anesthetic activity in rabbit assessed as time to walk at 2 times of HD50 concentration; type: functional

For CCOC(=O)Cc1ccc(OCC(=O)N2CCN(c3ccccc3)CC2)c(OCC)c1, the logP [1] was 3.1, the “HD50 (median hypnotic dose)” value (Mus musculus [2]) was 30.6 mg/kg and the LD50 [3] was 208 mg/kg. It also gave a selectivity ratio [4] of 6.8 and an inhibition [5] of 22.1%.

With CCOc1cc(CC(=O)OCC(F)(F)F)ccc1OCC(=O)N1CCN(c2cccc(C(F)(F)F)c2)CC1 the logP [1] was 4.7, the “HD50 (median hypnotic dose)” value (Mus musculus [2]) was 31.2 mg/kg and the LD50 [3] was 198 mg/kg. For the same compound, the selectivity ratio [4] was 6.3 and the inhibition [5] was 38.8%.

In the case of CCOc1cc(CC(=O)OC(C)C)ccc1OCC(=O)N1CCN(c2ccccc2)CC1, the logP [1] is reported as 3.5, the “HD50 (median hypnotic dose)” value (Mus musculus [2]) is reported as 36.8 mg/kg and the LD50 [3] is reported as 265 mg/kg. The selectivity ratio [4] was 7.2 and the inhibition [5] was 54.2%.

For CCCOC(=O)Cc1ccc(OCC(=O)N2CCN(c3cccc(C(F)(F)F)c3)CC2)c(OCC)c1, the logP [1] was 4.5, the “HD50 (median hypnotic dose)” value (Mus musculus [2]) was 33.6 mg/kg and the LD50 [3] was 176 mg/kg. It also gave a selectivity ratio [4] of 5.2 and an inhibition [5] of 49.6%.

In the case of CCOc1cc(CC(=O)OC(C)C)ccc1OCC(=O)N1CCN(c2cccc(C)c2C)CC1, the logP [1] is reported as 4.4, the “HD50 (median hypnotic dose)” value (Mus musculus [2]) is reported as 31.4 mg/kg and the LD50 [3] is reported as 200 mg/kg. The selectivity ratio [4] was 6.4 and the inhibition [5] was 42.7%.

With CCOC(=O)Cc1ccc(OCC(=O)N2CCN(c3cccc(C(F)(F)F)c3)CC2)c(OCC)c1 the logP [1] was 4.1, the “HD50 (median hypnotic dose)” value (Mus musculus [2]) was 42.5 mg/kg and the LD50 [3] was 289 mg/kg. For the same compound, the selectivity ratio [4] was 6.8 and the inhibition [5] was 44.4%.

In the case of CCCOC(=O)Cc1ccc(OCC(=O)N2CCN(c3cccc(Cl)c3Cl)CC2)c(OCC)c1, the logP [1] is reported as 4.7, the “HD50 (median hypnotic dose)” value (Mus musculus [2]) is reported as 38.6 mg/kg and the LD50 [3] is reported as 201 mg/kg. The selectivity ratio [4] was 5.2 and the inhibition [5] was 33.3%.

In the case of CCOc1cc(CC(=O)OCC(F)(F)F)ccc1OCC(=O)N1CCN(c2cccc(C)c2C)CC1, the logP [1] is reported as 4.7, the “HD50 (median hypnotic dose)” value (Mus musculus [2]) is reported as 35.6 mg/kg and the LD50 [3] is reported as 227 mg/kg. It also gave a selectivity ratio [4] of 6.4 and an inhibition [5] of 32.1%.

For CCCOC(=O)Cc1ccc(OCC(=O)N(CC)CC)c(OC)c1 [PROPANIDID], the logP [1] was 2.1, the selectivity ratio [4] was 5.6 and the Time (Mus musculus [6]) was 6.7 s. For the same compound, the Time (Mus musculus [7]) was 89.6 s, the Time (Mus musculus [8]) was 56.3 s and the EC50 (Rattus norvegicus [9]) was 8.4 mg/kg. The LD50 [10] was 81 mg/kg, the selectivity ratio [11] was 9.6 and the EC50 (Oryctolagus cuniculus [12]) was 5.1 mg/kg. It also gave an LD50 [13] of 75.4 mg/kg, a selectivity ratio [14] of 14.7 and a Time (Rattus norvegicus [15]) of 16.3 s. It also gave a Time (Rattus norvegicus [16]) of 93.3 s, a Time (Rattus norvegicus [17]) of 58.7 s and a Time (Oryctolagus cuniculus [18]) of 22.6 s. For the same compound, the Time (Oryctolagus cuniculus [19]) was 265.4 s, the Time (Oryctolagus cuniculus [20]) was 124.5 s and the inhibition [5] was 83.2%.

With CCOc1cc(CC(=O)OC(C)C)ccc1OCC(=O)N1CCN(c2cccc(Cl)c2Cl)CC1 the logP [1] was 4.6, the “HD50 (median hypnotic dose)” value (Mus musculus [2]) was 39.5 mg/kg and the LD50 [3] was 254 mg/kg. It also gave a selectivity ratio [4] of 6.4 and an inhibition [5] of 35.9%.

Reference: ChEMBL document CHEMBL5131414, “Design, synthesis, and evaluation of phenylpiperazine-phenylacetate derivatives as rapid recovery hypnotic agents” (Bioorg Med Chem Lett, 2022)
